Like-named read-outs stand apart in the source and are kept apart here. Marks after values point to notes of the source that are not given here.
What was measured:
[1] = tested on: C-33A, an HPV-negative human cervical cancer cell line; assay: Cell proliferation and cell death, trypan blue exclusion, C-33A cells; format: cell-based; settings: for Proliferation Rate: treated/untreated cells
Experimental: M4N in 10% (w/v) HP-β-CD and 25% (v/v) PEG 300 (hereafter, the “CPE formulation”), M4N in 30% (w/v) HP-β-CD and 25% (v/v) PEG 300 (hereafter, the “CPE 25/30 formulation”) and M4N in 27% (w/v) HP-β-CD and 33% (v/v) PEG 300 (hereafter, the “CPE 33/27 formulation”) was tested for their effects on cell death and proliferation on two different tumor cell lines: HeLa, an HPV-18 positive human cervical cancer cell line, and C-33A, an HPV-negative human cervical cancer cell line M4N in DMSO was also tested in parallel. Both tumor cell lines were treated with increasing amounts of M4N: 0 μM, 20 μM, 40 μM, 60 μM and 80 μM, for 72 hr with the DMSO or the CPE formulation. Each formulation was added to total 1% of the growth media (Minimal Essential Medium with L-glutamine supplemented with 10% fetal bovine serum, 1 mM sodium pyruvate, 1× non-essential amino acid solution, and 1,000 IU/mL penicillin/1,000 μg/mL streptomycin solution). Control cells were grown under the same conditions and were left untreated. After 72 hr of treatment or no treatment, the total number of cells and the number of live cells in each sample were counted, using the trypan blue exclusion method. The cell proliferation rate and the percentage of dead cells in each sample were analyzed. Results of this experiment are shown in FIG. 1, FIG. 2, and Tables 6 through 12.
FIG. 1 is a graphical representation of the ratio of the number of treated cells/number of untreated cells plotted against increasing concentrations of M4N in either the DMSO formulation or the CPE formulation for treatment of the C-33A cells and HeLa cells. FIG. 2 is a graphical representation of the percentage of dead cells plotted against increasing concentrations of M4N and in either DMSO formulation or the CPE formulation for treatment of the two cancer cell lines, C-33A and HeLa cells in culture.

[2] = set-up: species or system Beagle dogs; settings: in vivo
Experimental: Following completion of each intravenous infusion, 1 mL of sterile saline was administered as a slow bolus injection to flush the test material from the infusion line into the animal, followed by an injection of heparin-saline solution to fill the infusion line to maintain patency. The animals were observed. Cageside observation included observation for mortality, morbundity, general health, and signs of toxicity. Clinical observations included evaluation of skin and fur characteristics, surgical site, eye and mucous membranes, respiratory, circulatory, autonomic and central nervous systems, and somatomotor and behavior patterns. Blood was collected and placed into 2.5 mL serum separator tubes for serum M4N concentration analysis. The tubes were inverted several times, stored on wet ice, and centrifuged at about 3000 rpm for about 10 min. at 4° C. Serum was transferred to microcentrifuge tubes and stored at −75±10° C.
Samples were shipped on dry ice to the Analytical Chemistry Laboratory of GeneLogic (Gaithersburg, Md., U.S.A.) for test article analysis. The method involved treating aliquots of dog serum, at least 0.5 mL, with acetonitrile, filtering, and injecting the filtrate onto an HPLC column with tandem mass-spectrometry detection (LC-MS/MS). The analyte was quantified using an external standard curve with triazolam as an internal standard.

[3] = Human Phase 0 three-way crossover microdose pharmacokinetic study of 14C-labelled M4N (AMS); format: in vivo
Source text: This study was designed to assess the absorption of […] when administered to humans as a sub-therapeutic dose either as a single oral dose under fed and fasted conditions or a single intravenous dose (Regimens A-C, respectively, in Table 24). […] During the course of each study period, pharmacokinetic blood samples were taken at specified time points after dosing and urine was collected over pre-defined time intervals. The subjects were able to leave the clinical unit after the completion of study specific procedures at 24 hours post-dose. In this study, […] was administered to humans in a 100 μg quantity. […] Each oral administration of […] consisted of 0.1 mg of ^14C labeled […] and 376.8 mg of glycerol monooleate in a size 0 gelatin capsule. […] The baseline levels of […] were corrected for any residual […] remaining in the subjects following the periods between dosing so as not to inflate the levels of […] for any subsequent dosing.

[4] = M4N 20 μM in CPE formulation, 72 hr
[5] = M4N 60 μM in CPE formulation, 72 hr
[6] = M4N 80 μM in CPE formulation, 72 hr

COc1ccc(C[C@@H](C)[C@@H](C)Cc2ccc(OC)c(OC)c2)cc1OC [Formulation M4N, meso-1,4-bis(3,4-dimethoxyphenyl)-2,3-dimethylbutane]
cell death, share of the cell population ([1]; 80 μM or […] M4N in CPE formulation): about 20%
cell death, share of the cell population ([1]; 80 μM or […] M4N in DMSO formulation): about 40%
M4N sufficient to cause about a 50% inhibition in cell proliferation ([1]; CPE formulation, 72 hr): ~7.2 µg/mL
% Dead Cells [1, 4]: 7.0%
% Viability [1, 4]: 93.0%
Proliferation Rate [1, 4]: 0.43
% Dead Cells ([1]; M4N 20 μM in DMSO, 72 hr): 17.4%
% Viability ([1]; M4N 20 μM in DMSO, 72 hr): 82.6%
Proliferation Rate ([1]; M4N 20 μM in DMSO, 72 hr): 0.20
Proliferation Rate ([1]; M4N 40 μM in CPE formulation, 72 hr): 0.43
% Dead Cells ([1]; M4N 40 μM in DMSO, 72 hr): 33.0%
% Viability ([1]; M4N 40 μM in DMSO, 72 hr): 67.0%
Proliferation Rate ([1]; M4N 40 μM in DMSO, 72 hr): 0.15
% Dead Cells [1, 5]: 10.6%
% Viability [1, 5]: 89.4%
Proliferation Rate [1, 5]: 0.22
% Dead Cells ([1]; M4N 60 μM in DMSO, 72 hr): 39.6%
% Viability ([1]; M4N 60 μM in DMSO, 72 hr): 60.4%
Proliferation Rate ([1]; M4N 60 μM in DMSO, 72 hr): 0.14
% Dead Cells [1, 6]: 22.5%
% Viability [1, 6]: 77.5%
Proliferation Rate [1, 6]: 0.15
% Dead Cells ([1]; M4N 80 μM in DMSO, 72 hr): 43.3%
% Viability ([1]; M4N 80 μM in DMSO, 72 hr): 56.7%
Proliferation Rate ([1]; M4N 80 μM in DMSO, 72 hr): 0.11
Cell proliferation rate ([1]; M4N in DMSO or CPE formulation vs non-M4N-treated controls in the same formulation): reduced
M4N in serum 16 hr following the infusion period ([2]; dog): still detectable
M4N serum levels, female dog vs male dog [2]: higher in the female dog
T½ ([3]; Regimen A (oral, fed): 100 μg single oral dose following a high fat breakfast, 14C, baseline corrected, mean ± SD): 96.5 ± 20.7 h
Cmax ([3]; Regimen A (oral, fed): 100 μg single oral dose following a high fat breakfast, 14C, baseline corrected, mean ± SD, read-out: Cmax): 5.94 ± 1.33 pM
Tmax ([3]; Regimen A (oral, fed): 100 μg single oral dose following a high fat breakfast, 14C, baseline corrected, median): 2.50^a hours
T½ ([3]; Regimen B (oral, fasted): 100 μg single oral dose following an overnight fast, 14C, baseline corrected, mean ± SD): 50.9 ± 22.4 h
Cmax ([3]; Regimen B (oral, fasted): 100 μg single oral dose following an overnight fast, 14C, baseline corrected, mean ± SD, read-out: Cmax): 9.29 ± 1.4 pM
Tmax ([3]; Regimen B (oral, fasted): 100 μg single oral dose following an overnight fast, 14C, baseline corrected, median): 1.00^a hours
T½ ([3]; Regimen C (Intravenous): 100 μg as 1 mL bolus intravenous solution following an overnight fast, 14C, baseline corrected, mean ± SD): 116.2 ± 64.0 h
Cmax ([3]; Regimen C (Intravenous): 100 μg as 1 mL bolus intravenous solution following an overnight fast, 14C, baseline corrected, mean ± SD, read-out: Cmax): 10.3 ± 1.77 pM
Tmax ([3]; Regimen C (Intravenous): 100 μg as 1 mL bolus intravenous solution following an overnight fast, 14C, baseline corrected, median): 0.08^a hours
Tmax ([3]; intravenous dose, eight of the ten subjects (first sampling time)): 0.08 h
Tmax ([3]; intravenous dose, two subjects): 0.17 h
Cmax ([3]; oral 100 μg 14C-labelled M4N after a high fat breakfast, mean±SD, read-out: Cmax for total 14C): 5.94 ± 1.33 pM
Cmax ([3]; oral 100 μg 14C-labelled M4N after an overnight fast, mean±SD, read-out: Cmax for total 14C): 9.29 ± 1.4 pM
apparent absorption ([3]; oral administration, fed and fasted state): very high
Tmax ([3]; oral, fasted subjects): ~1 h
Cmax ([3]; single intravenous dose 100 μg in 30% HP-β-CD, 25% PEG, mean±SD, read-out: Cmax for total 14C): 10.3 ± 1.77 pM

— US20080096967A1, “Formulations for Injection of Catecholic Butanes, Including Ndga Compounds, Into Animals” (priority 2005, published 2008)
